Laboratory results published in US9248103B2, “Method for improving water solubility of slightly soluble substance” (Kabushiki Kaisha Sangi, priority 2012, dated 2016).
Blank lines part the entries; values can stand above or below the molecule they belong to.

Experiments:
Format in all cases: physicochemical
[1] = Dissolution test of poorly-soluble substances, distilled water
Description: (§1) From initiation of the test, the mixed solution was stirred with a stirrer having a length of 15 mm. The rotation number of the stirrer was 120 rpm, and all of the tests were conducted in a thermostat at 37±0.5° C. Two types of test solutions, namely, distilled water and 2nd fluid for disintegration test (pH 6.8) of the Japanese Pharmacopoeia were used. As such 2nd fluid for disintegration test of the Japanese Pharmacopoeia, a solution prepared by diluting the 10-fold concentration solution of Kanto Kagaku Co., Ltd. with distilled water was used.
(§2) A comparative test was carried out in the same manner as that described above, with the exception that, instead of a substance with improved aqueous solubility coated with hydroxyapatite microparticles and with a pH adjuster and/or a surfactant, a poorly-soluble substance or the like was used in the same amount as the substance with improved aqueous solubility.
(§3) […] The thus sampled solution was centrifuged at 12,000 rpm for 5 minutes. Thereafter, the substance with improved aqueous solubility and hydroxyapatite microparticles, which had not been dissolved in the solution, were removed. In the case of the comparative test, the poorly-soluble substance or the like, which had not been dissolved in the solution, was removed. An aliquot of this supernatant was immediately frozen. The frozen sample was freeze-dried, and it was then used as a sample in the measurement of the amount of the substance with improved aqueous solubility, which had been dissolved in the test solution. The dissolved poorly-soluble substance was measured mainly using a dual wavelength absorption photometer.

[2] = Dissolution test of poorly-soluble substances, 2nd fluid for disintegration test (pH 6.8) of the Japanese Pharmacopoeia
Description: as §1, §2, §3

[3] = pH of aqueous solution after 60 minutes in dissolution test using distilled water
Description: Moreover, as described above, since the pH of a local portion that is contacted with a poorly-soluble substance is more important than the pH of a solution as a whole, when an acidic substance is dissolved, desired effects can be obtained even though the pH is not extremely high. It is sufficient if a pH adjuster is used such that the pH of an aqueous solution of a substance with improved aqueous solubility becomes pH 8 or less. […] Herein, the pH of an aqueous solution indicates a pH value that is measured 60 minutes after the addition of a target substance to 50 mL of distilled water in an amount 2 times larger than the substance dissolved in 360 minutes. More specifically, the pH of an aqueous solution indicates a pH value that is measured according to [Dissolution test of poorly-soluble substances] in the below-mentioned Examples.
as §1
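Further: Comparative example rows not the inventive coated formulation.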

SMILES: O=C(CCCN1CCC(O)(c2ccc(Cl)cc2)CC1)c1ccc(F)cc1 [10-1, Haloperidol]
Dissolved amount, elution time 3 min ([1]; Haloperidol): 8.2 µg/mL | Dissolved amount, elution time 10 min ([1]; Haloperidol): 10.0 µg/mL | Dissolved amount, elution time 30 min ([1]; Haloperidol): 11.3 µg/mL | Dissolved amount, elution time 120 min ([1]; Haloperidol): 12.8 µg/mL | Dissolved amount, elution time 360 min ([1]; Haloperidol): 13.1 µg/mL | Dissolved amount, elution time 3 min ([2]; Haloperidol): 23.9 µg/mL | Dissolved amount, elution time 10 min ([2]; Haloperidol): 35.6 µg/mL | Dissolved amount, elution time 30 min ([2]; Haloperidol): 45.2 µg/mL | Dissolved amount, elution time 120 min ([2]; Haloperidol): 50.1 µg/mL | Dissolved amount, elution time 360 min ([2]; Haloperidol): 48.9 µg/mL | pH at 60 minutes after dissolution ([3]; Haloperidol): 8.1

SMILES: COc1cc(Cc2cnc(N)nc2N)cc(OC)c1OC [4-3, Trimethoprim]
Dissolved amount, elution time 1 min [1]: 354.6 µg/mL | Dissolved amount, elution time 3 min [1]: 531.0 µg/mL | Dissolved amount, elution time 10 min [1]: 685.0 µg/mL | Dissolved amount, elution time 30 min [1]: 677.9 µg/mL | Dissolved amount, elution time 60 min [1]: 671.8 µg/mL | Dissolved amount, elution time 180 min [1]: 672.0 µg/mL | Dissolved amount, elution time 360 min [1]: 656.3 µg/mL | Dissolved amount, elution time 1 min [2]: 807.8 µg/mL | Dissolved amount, elution time 3 min [2]: 1160.4 µg/mL | Dissolved amount, elution time 10 min [2]: 1291.7 µg/mL | Dissolved amount, elution time 30 min [2]: 1344.0 µg/mL | Dissolved amount, elution time 60 min [2]: 1324.8 µg/mL | Dissolved amount, elution time 180 min [2]: 1296.5 µg/mL | Dissolved amount, elution time 360 min [2]: 1321.9 µg/mL | pH at 60 minutes after dissolution ([3]; Trimethoprim): 8.4

SMILES: CC(=O)SC[C@@H](C)C(=O)N1CCC[C@H]1C(=O)N[C@@H](Cc1ccccc1)C(=O)O [8-1, Alacepril]
Dissolved amount, elution time 3 min ([1]; Alacepril): 526.2 µg/mL | Dissolved amount, elution time 10 min ([1]; Alacepril): 805.6 µg/mL | Dissolved amount, elution time 30 min ([1]; Alacepril): 931.2 µg/mL | Dissolved amount, elution time 120 min ([1]; Alacepril): 994.9 µg/mL | Dissolved amount, elution time 360 min ([1]; Alacepril): 996.5 µg/mL | Dissolved amount, elution time 3 min ([2]; Alacepril): 2311.1 µg/mL | Dissolved amount, elution time 10 min ([2]; Alacepril): 2514.7 µg/mL | Dissolved amount, elution time 30 min ([2]; Alacepril): 2525.0 µg/mL | Dissolved amount, elution time 120 min ([2]; Alacepril): 2588.4 µg/mL | pH at 60 minutes after dissolution ([3]; Alacepril): 2.9

Continued, values first:

Dissolved amount, elution time 1 min ([1]; Probucol): 0.7 µg/mL | Dissolved amount, elution time 3 min ([1]; Probucol): 2.7 µg/mL | Dissolved amount, elution time 10 min ([1]; Probucol): 3.7 µg/mL | Dissolved amount, elution time 30 min ([1]; Probucol): 6.1 µg/mL | Dissolved amount, elution time 60 min ([1]; Probucol): 7.6 µg/mL | Dissolved amount, elution time 180 min ([1]; Probucol): 8.3 µg/mL | Dissolved amount, elution time 360 min ([1]; Probucol): 9.7 µg/mL | Dissolved amount, elution time 1 min ([2]; Probucol): 4.7 µg/mL | Dissolved amount, elution time 3 min ([2]; Probucol): 14.9 µg/mL | Dissolved amount, elution time 10 min ([2]; Probucol): 19.9 µg/mL | Dissolved amount, elution time 30 min ([2]; Probucol): 21.2 µg/mL | Dissolved amount, elution time 60 min ([2]; Probucol): 21.8 µg/mL | Dissolved amount, elution time 180 min ([2]; Probucol): 26.8 µg/mL | Dissolved amount, elution time 360 min ([2]; Probucol): 28.0 µg/mL
SMILES: CC(C)(Sc1cc(C(C)(C)C)c(O)c(C(C)(C)C)c1)Sc1cc(C(C)(C)C)c(O)c(C(C)(C)C)c1 [5-2, Probucol]

Dissolved amount, elution time 1 min [1]: 1162.9 µg/mL | Dissolved amount, elution time 3 min [1]: 1502.6 µg/mL | Dissolved amount, elution time 10 min [1]: 1416.8 µg/mL | Dissolved amount, elution time 180 min [1]: 1509.8 µg/mL | Dissolved amount, elution time 360 min [1]: 1497.4 µg/mL | Dissolved amount, elution time 3 min [2]: 2286.6 µg/mL | Dissolved amount, elution time 10 min [2]: 2541.7 µg/mL | Dissolved amount, elution time 30 min [2]: 2600.9 µg/mL | Dissolved amount, elution time 60 min [2]: 2667.9 µg/mL | Dissolved amount, elution time 180 min [2]: 2509.7 µg/mL | Dissolved amount, elution time 360 min [2]: 2410.4 µg/mL | pH at 60 minutes after dissolution ([3]; Famotidine): 8.4
SMILES: NC(N)=Nc1nc(CSCCC(N)=NS(N)(=O)=O)cs1 [3-4, Famotidine]

Dissolved amount, elution time 3 min ([1]; Erythromycin): 635.0 µg/mL | Dissolved amount, elution time 10 min ([1]; Erythromycin): 861.6 µg/mL | Dissolved amount, elution time 30 min ([1]; Erythromycin): 944.7 µg/mL | Dissolved amount, elution time 120 min ([1]; Erythromycin): 927.7 µg/mL | Dissolved amount, elution time 360 min ([1]; Erythromycin): 846.1 µg/mL | Dissolved amount, elution time 3 min ([2]; Erythromycin): 2556.3 µg/mL | Dissolved amount, elution time 10 min ([2]; Erythromycin): 4984.2 µg/mL | Dissolved amount, elution time 30 min ([2]; Erythromycin): 5103.6 µg/mL | Dissolved amount, elution time 120 min ([2]; Erythromycin): 5904.1 µg/mL | Dissolved amount, elution time 360 min ([2]; Erythromycin): 6044.7 µg/mL | pH at 60 minutes after dissolution ([3]; Erythromycin): 9.6
SMILES: CC[C@H]1OC(=O)[C@H](C)[C@@H](O[C@H]2C[C@@](C)(OC)[C@@H](O)[C@H](C)O2)[C@H](C)[C@@H](O[C@@H]2O[C@H](C)C[C@H](N(C)C)[C@H]2O)[C@](C)(O)C[C@@H](C)C(=O)[C@H](C)[C@@H](O)[C@]1(C)O [9-1, Erythromycin]

pH at 60 minutes after dissolution ([3]; Sulpiride): 9.3
SMILES: CCN1CCCC1CNC(=O)c1cc(S(N)(=O)=O)ccc1OC (centres unmarked) [6-4, Sulpiride]

Dissolved amount, elution time 1 min [1]: 48.8 µg/mL | Dissolved amount, elution time 3 min [1]: 49.3 µg/mL | Dissolved amount, elution time 10 min [1]: 51.3 µg/mL | Dissolved amount, elution time 30 min [1]: 56.6 µg/mL | Dissolved amount, elution time 60 min [1]: 50.5 µg/mL | Dissolved amount, elution time 180 min [1]: 52.9 µg/mL | Dissolved amount, elution time 360 min [1]: 68.6 µg/mL | Dissolved amount, elution time 1 min [2]: 637.3 µg/mL | Dissolved amount, elution time 3 min [2]: 1597.2 µg/mL | Dissolved amount, elution time 10 min [2]: 2041.9 µg/mL | Dissolved amount, elution time 30 min [2]: 2141.1 µg/mL | Dissolved amount, elution time 60 min [2]: 2449.4 µg/mL | Dissolved amount, elution time 180 min [2]: 2432.9 µg/mL | Dissolved amount, elution time 360 min [2]: 2429.1 µg/mL | pH at 60 minutes after dissolution ([3]; Tolbutamide): 4.3
SMILES: CCCCNC(=O)NS(=O)(=O)c1ccc(C)cc1 [1-5, Tolbutamide]
